According to patent publication US20060052357A1, “Organometallic anti-tumour agent” (priority 2001, published 2006):

Experiments:
adenocarcinoma = assay: Adenocarcinoma in Balb mice, intraabdominal administration; type: in vivo
Experimental: 1) 10 mice of the Balb line, each of which contained an adenocarcinoma, received intraabdominal administration of Cu(acac)2M in a dose of 5 mg/kg in 0.3 ml of physiological saline solution. As control, 10 further mice of the same type with the same tumor were determined without treatment. An average tumor weight of 3.60 g was found in the control mice, while the average tumor weight in the treated mice was 0.3 g. The results for the mice treated according to the invention are indicated, with weight and size of the tumor, in table 1 below.
The average weight of the tumor was 3.60 g.

leukemia L-1210 = assay: Leukemia L-1210 survival; type: in vivo, mice
Experimental: (§1) The therapeutic efficacy was investigated on the leukemia tumor strains L-1210, P-388, and P-388 strains specifically obtained for drug resistance. The lifespan of the animals was set at 60 days in this case. Drug-resistant tumor were obtained by successive transplantation of the leukemia P-388 with ascites cells taken from mice which had been treated with rubomycin (strain P388/ph), vincristine (P388/vcr) and zisplatin (P388/cPt).
Inoculum: 10^6 cells in 0.2 ml of physiological saline solution. Mice: BDF1, females 19-21 g. The products were administered intraabdominally.
After transplantation of the tumor, the substance MOC.melphalan was administered intraabdominally to the animals in a dosage of 5 mg/kg in 0.3 ml of 10% Twin-80 solution on days 1 to 7. The effect of the substance was assessed on the basis of the lifespan and the weight change of the animals (table 9). The observation period was 60 days.

P388/cPt = assay: Drug-resistant leukemia P388/cPt (cisplatin-resistant) survival; type: in vivo, mice; settings: 5 mg/kg, days 1-7
Text: as §1
Resistance to the products mentioned appear in the 8th, 6th and 4th generation.
The products were administered intraabdominally. Cu(acac)2M was dissolved in 10% Twin 80.

B-16 melanoma tumor = assay: B-16 melanoma in Black-line mice (Example 6); type: in vivo
Experimental: After transplantation of the B-16 melanoma tumor to Black-line mice. (cell suspension with 10×10^6 cells/ml), MOC.melphalan was administered intraabdominally in a dosage of 5 mg/kg in 0.3 ml of 10% DMSO solution on days 3, 5 and 9. The animals were sacrificed on day 21 of the investigation and underwent histological, morphological examination (see table 9).
After transplantation of the B-16 melanoma tumor into black-line mice (cell suspension with 10×10^6 cells/ml), the substance was administered intraabdominally in a dosage of 0.1 mg/animal in 0.3 ml of 10% DMSO solution on days 3, 5 and 9. The animals were sacrificed on day 16 of the investigation and underwent histological, morphological examination (see table 10, FIGS. 1, 2). The DNA concentration in the tumor cells was determined by spectrophotometry after electrophoresis. (Table 10, FIG. 3).

S-180 sarcoma tumor = assay: S-180 sarcoma in white crossbred mice (Example 7); type: in vivo; settings: day 21
Experimental: After transplantation of the S-180 sarcoma tumor into white crossbred mice, the animals received the substance MOC.melphalan by intraabdominal administration in a dosage of 1 mg/kg in 0.3 ml of 10% DMSO solution on days 3, 5 and 9. The animals were sacrificed on day 21 of the investigation and underwent histological, morphological examination (table 11).
(§2) After transplantation of the S-180 sarcoma tumor into white crossbred mice, the animals received MOC.melphalan and melphalan by intraabdominal administration in a dosage of 5 mg/kg in 0.3 ml of 10% DMSO solution on days 3, 5, 7 and 9. The animals were sacrificed on day 21 of the investigation and underwent histological, morphological examination (table 12).
as §2, with “2, 4, 6, 8” for “3, 5, 7”, “10.” for “9.”, “13).” for “12).”

AKATON tumor = assay: AKATON small bowel adenocarcinoma, treatment with MOC.melphalan (Example 8); type: in vivo, mice; settings: day 21
Experimental: as §2, with “AKATON” for “S-180 sarcoma”, “received the substance” for “received”, “MOC.melphalan” for “MOC.melphalan and melphalan”, “physiological” for “10% DMSO”, “14).” for “12).”
After transplantation of the AKATON tumor into white crossbred mice, the animals received the substance MOC.melphalan by intravenous administration in a dosage of 5 mg/kg in 0.3 ml of physiological solution on days 3, 5, 7 and 9. The animals were sacrificed on day 21 of the investigation and underwent histological, morphological examination (table 15).

[1] = test system: S-180 sarcoma tumor cells; assay: DNA concentration in S-180 sarcoma tumor cells after incubation; type: cell-based, mice; settings: 0.05 mg/10^6 cells; for DNA concentration: 37° C., control 106; for DNA concentration/control: control 100
Experimental: S-180 sarcoma tumor cells (20·10^6 cells/investigation) were incubated with the substance MOC.melphalan in a concentration of 0.05 mg/10^6 cells at a temperature of 37° C. for 40 or 60 min (see table 16).
The DNA concentration was determined using the phenol-chloroform method of MANIATIS (Maniatis, Frin, Sämbruck Methods of genetic engineering, Molecular Cloning, M.: MIR, 1984, pages 479 et seq.). Separation of DNA and RNA was followed by a phoresis in a 2.5% agarose gel (see table 16, FIG. 7).

leukemia P-388 = assay: Leukemia P-388 survival (original strain); type: in vivo, mice
[2] = 5 mg/kg intraabdominal days 3, 5, 7, 9

CC(=O)C=C(C)[O-].CC(=O)C=C(C)[O-].NC(Cc1ccc(N(CCCl)CCCl)cc1)C(=O)O.[Cu+2] (stereo not shown) [MOC.melphalan, (C5H7O2)2—Cu—C13H18Cl2N2O2]
inhibition of the tumor (adenocarcinoma; Balb mice, 5 mg/kg intraabdominal, compared with control series): 91.9%
average tumor weight (adenocarcinoma; Balb mice, 5 mg/kg intraabdominal, control 3.60 g): 0.3 g
Size of the tumor (adenocarcinoma; individual treated mice 1-10, 5 mg/kg intraabdominal, listed as Cu(acac)2M): 0 cm
Change in weight (leukemia L-1210; 5 mg/kg intraabdominal days 1-7): -1.5 g
% of surviving animals (leukemia L-1210; 5 mg/kg intraabdominal days 1-7, 60 days observation): 100%
Lifespan of the animals in the experiment (leukemia L-1210; 5 mg/kg intraabdominal days 1-7, control 8.5): >60 days
ILS % (P388/cPt): 193%
Percentage inhibition (B-16 melanoma tumor; 0.1 mg/animal intraabdominal days 3, 5, 9, day 16): 78%
Average tumor mass (B-16 melanoma tumor; 0.1 mg/animal intraabdominal days 3, 5, 9, day 16, control 3.22): 0.83 g
mitosis index (B-16 melanoma tumor; 0.1 mg/animal, day 16, control 4.2): 0.6
Percentage inhibition (B-16 melanoma tumor; 5 mg/kg intraabdominal days 3, 5, 9, day 21): 100%
Tumor weight (B-16 melanoma tumor; FIG. 1, single black-line mouse after treatment, control mouse 3.15 g): 0.3 g
DNA (B-16 melanoma tumor; tumor cells, 0.1 mg/animal, day 16, control 4.3): 0.8 mg/g
Percentage inhibition (S-180 sarcoma tumor; 1 mg/kg intraabdominal days 3, 5, 9): 100%
Percentage inhibition (S-180 sarcoma tumor; 5 mg/kg intraabdominal days 2, 4, 6, 8, 10): 49%
Average tumor mass (S-180 sarcoma tumor; 5 mg/kg intraabdominal days 2, 4, 6, 8, 10, control 3.9 ± 0.5): 2.0 ± 0.7 g
Percentage inhibition (S-180 sarcoma tumor; [2]): 100%
Percentage inhibition (AKATON tumor; [2]): 92%
Average tumor mass (AKATON tumor; 5 mg/kg intraabdominal days 3, 5, 7, 9, control 3.6): 0.3
Percentage inhibition (AKATON tumor; 5 mg/kg intravenous days 3, 5, 7, 9): 80%
Average tumor mass (AKATON tumor; 5 mg/kg intravenous days 3, 5, 7, 9, control 4.4): 0.9 g
DNA concentration ([1]; incubation 40 min): 530 μg/g of cells
DNA concentration ([1]; incubation 60 min): 53 μg/g of cells
DNA concentration/control ([1]; incubation 40 min): 498
DNA concentration/control ([1]; incubation 60 min): 50
ILS % (leukemia P-388; 10 mg/kg, days 1, 5, 9): 419%
Number of surviving animals/number of animals in group (leukemia P-388; 10 mg/kg, days 1, 5, 9): 5/6
ILS % (leukemia P-388; 10 mg/kg, days 1, 7): 465%
Number of surviving animals/number of animals in group (leukemia P-388; 10 mg/kg, days 1, 7): 4/6
ILS % (leukemia P-388; 15 mg/kg, days 1, 7): 447%
Number of surviving animals/number of animals in group (leukemia P-388; 15 mg/kg, days 1, 7): 5/6
